Laboratory results from patent US11680056B2, “MK2 inhibitors and uses thereof” (Xinthera, Inc., priority 2021, dated 2023).

How the values were obtained:
p38a/PRAK = p38a/PRAK (Homo sapiens (Human), UniProt Q16539); test: p38a/PRAK biochemical assay: activation of PRAK by p38, FITC-HSP27 peptide phosphorylation (IMAP FP); conditions: 10-point 1:3 dilution, top dose 300 μM; 60 pM active p38a, 1 nM inactive PRAK, 10 μM ATP, 2 h incubation; read-out: p38a/PRAK Enzyme pIC50 (converted)
Protocol: (§1) Expression vectors of the recombinant MK2 and PRAK kinases were constructed by cloning of the codon optimized gene sequences of MK2 (Uniprot ID P49137, amino acid fragment F46-H400), or PRAK (Uniprot ID Q81W41, amino acid fragment M1-Q471) into pGEX-4T1 (GE) for over expression of these kinases with N-terminal GST-tag. Protein expression was carried out in E. coli BL21 by growing the hosts in TB medium, induction of protein expression with 0.5 mM IPTG at approximate 0.8 OD600, and incubation of the cultures at 18° C. for 14-20 hours afterwards. The harvested cells were resuspended in […] of Lysis buffer (50 mM Tris-HCl, pH 8.0, 500 mM NaCl, 1 mM DTT, 5% glycerol, and 1 mM PMSF) per gram of wet cell mass and homogenized at 4° C. in a microfluidizer (ATS, Suzhou, China) at 14,000 psi pressure, 3 passes. The cell lysates were clarified by centrifugation and the supernatants containing the GST-fusion proteins were purified by affinity chromatography using GSH-Sepharose (GE) gravity flow columns pre-equilibrated in Buffer A (50 mM Tris-HCl, pH 8.0, 500 mM NaCl, 1 mM DTT, and 5% glycerol). After thorough washing of the columns with Buffer A, the bound GST-proteins were eluted by Buffer B (50 mM Tris, pH 8.0, 500 mM NaCl, 1 mM DTT, 5% glycerol, 10 mM glutathione), followed by size-exclusion purification on Superdex 200 column equilibrated in Buffer A. The purified proteins were concentrated to approximately 1 mg/ml and stored at −80° C.
(§2) This study evaluates the inhibitory potency of invention compound on p38/MK2 pathway vs p38/PRAK pathway. More specially the compound concentration (IC50) was determined that inhibited half of the maximal activation of MK2 or PRAK by p38. MK2 activation study was set up without or with a serial of 10-point 1:3 dilution of invention compound at top dose of 1 or 1 μM, and PRAK activation study was set up without or with a serial of 10-point 1:3 dilution of invention compound at top dose of 300 μM. The MK2 and PRAK activity were determined by the phosphorylation level of HSP27 peptide conjugated with FITC.
(§3) After 2 h incubation of the reaction mixture with various concentration of invention compound (200 nL), 60 μL 1×IMAP solution Mixture (Molecular Devices, Cat R8127) was added to the reaction mixture and incubated for another half hour. The signal was then read by Synergy™ Neo2 Multi-Mode Microplate Reader with filter setting (Ex/Em=485 nm/FITC FP-P pol 528 nm & FITC FP-S pol 528 nm)
(§4) The signal was then normalized to vehicle control and fitted in Xfit to generate IC50. The selectivity of MK2 over PRAK was calculated by the formular Selectivity=IC50 of PRAK/IC50 of MK2.

p38a/MK2 = p38a/MK2 (Homo sapiens (Human), UniProt P49137+Q16539); test: p38a/MK2 biochemical assay: activation of MK2 by p38, FITC-HSP27 peptide phosphorylation (IMAP FP); conditions: 10-point 1:3 dilution, top dose 10 μM; 60 pM active p38a, 1 nM inactive MK2, 10 μM ATP, 2 h incubation; read-out: p38a/MK2 (10 μM) Enzyme pIC50 (converted)
Chain of p38a/MK2 (P49137 46-400): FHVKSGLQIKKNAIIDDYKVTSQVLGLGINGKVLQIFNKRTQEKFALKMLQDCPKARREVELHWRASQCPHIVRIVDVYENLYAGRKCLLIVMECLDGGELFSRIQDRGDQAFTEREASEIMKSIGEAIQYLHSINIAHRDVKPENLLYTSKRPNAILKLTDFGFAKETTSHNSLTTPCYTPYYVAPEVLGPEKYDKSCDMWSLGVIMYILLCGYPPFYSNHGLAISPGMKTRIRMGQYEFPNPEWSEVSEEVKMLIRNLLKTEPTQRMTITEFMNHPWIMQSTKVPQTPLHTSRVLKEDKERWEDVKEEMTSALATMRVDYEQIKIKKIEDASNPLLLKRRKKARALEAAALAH
Chain of p38a/MK2 (Q16539 whole entry): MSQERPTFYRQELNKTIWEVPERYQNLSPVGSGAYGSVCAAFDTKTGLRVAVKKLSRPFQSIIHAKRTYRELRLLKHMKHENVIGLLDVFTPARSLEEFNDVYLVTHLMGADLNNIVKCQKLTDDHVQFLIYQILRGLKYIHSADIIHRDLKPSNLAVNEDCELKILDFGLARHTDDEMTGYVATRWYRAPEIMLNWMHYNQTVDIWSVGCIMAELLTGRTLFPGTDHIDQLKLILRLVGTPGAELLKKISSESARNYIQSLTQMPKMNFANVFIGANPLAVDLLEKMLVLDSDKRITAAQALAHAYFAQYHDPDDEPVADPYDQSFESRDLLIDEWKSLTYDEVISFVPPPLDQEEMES
Protocol: as §1
as §2, with “1:[…],” for “1:3 dilution of invention compound at top dose of 1 or 1 μM,”
as §3, §4

Chain of p38a/PRAK (Q16539 whole entry, the tested form may be a part): as the sequence (Q16539 whole entry) above

**Q.** With `Cc1cnc(-c2ccnc([C@@](C)(O)C3CC3)n2)cc1-n1c(C)cc(OCc2ncc(F)cc2F)c(Cl)c1=O` (single isomer, unassigned) [Example 6A, rel-3-chloro-2′-[2-(1-cyclopropyl-1-hydroxyethyl)pyrimidin-4-yl]-4-[(3,5-difluoropyridin-2-yl)methoxy]-5′,6-dimethyl-[1,4′-bipyridin]-2-one] as the compound, how does the IC50 (p38a/PRAK) read?
**A.** 10 µM

**Q.** What about the IC50 (p38a/MK2) of the same compound?
**A.** 0.0251 µM

**Q.** With `COc1cnc(-c2ccnc(C(C)(C)O)n2)cc1-n1c(C)cc(OCc2ncc(F)cc2F)c(Cl)c1=O` (atropisomer, axis not shown) [Example 7, 3-chloro-4-[(3,5-difluoropyridin-2-yl)methoxy]-2′-[2-(2-hydroxypropan-2-yl)pyrimidin-4-yl]-5′-methoxy-6-methyl-[1,4′-bipyridin]-2-one] as the compound, how does the IC50 (p38a/PRAK) read?
**A.** 63.1 µM

**Q.** What about the IC50 (p38a/MK2) of the same compound?
**A.** 0.501 µM

**Q.** `Cc1cnc(-c2ccc3c(n2)[C@H](O)CC3)cc1-n1c(C)cc(OCc2ncc(F)cc2F)c(Cl)c1=O` (single isomer, unassigned) [Example 18A] was tested. Which IC50 (p38a/PRAK) did it give?
**A.** 25.1 µM

**Q.** What about the IC50 (p38a/MK2) of the same compound?
**A.** 0.158 µM

**Q.** Which IC50 (p38a/PRAK) does the source give for `Cc1cnc(-c2ccnc(C(C)(C)O)n2)cc1-n1c(C)cc(OCc2cc(C(F)F)ccn2)c(Cl)c1=O` (single isomer, unassigned) [Example 27B, rel-3-chloro-4-{[4-(difluoromethyl)pyridin-2-yl]methoxy}-2′-[2-(2-hydroxypropan-2-yl)pyrimidin-4-yl]-5′,6-dimethyl-[1,4′-bipyridin]-2-one] here?
**A.** > 316 µM

**Q.** And the IC50 (p38a/MK2)?
**A.** 5.01 µM

**Q.** `Cc1cnc(-n2nc(C(C)(C)O)cc2C)cc1-n1c(C)cc(OCc2ncc(F)cc2F)c(Cl)c1=O` (single isomer, unassigned) [Example 19A, rel-3-chloro-4-((3,5-difluoropyridin-2-yl)methoxy)-2′-(3-(2-hydroxypropan-2-yl)-5-methyl-1H-pyrazol-1-yl)-5′,6-dimethyl-2H-[1,4′-bipyridin]-2-one] was tested. Which IC50 (p38a/PRAK) did it give?
**A.** 5.01 µM

**Q.** How did the IC50 (p38a/PRAK) turn out when `Cc1cnc(-n2nc(C(C)(C)O)cc2C2CC2)cc1-n1c(C)cc(OCc2ncc(F)cc2F)c(Cl)c1=O` (single isomer, unassigned) [Example 20A, rel-3-chloro-2′-[5-cyclopropyl-3-(2-hydroxypropan-2-yl)pyrazol-1-yl]-4-[(3,5-difluoropyridin-2-yl)methoxy]-5′,6-dimethyl-[1,4′-bipyridin]-2-one] was run?
**A.** 5.01 µM

**Q.** How did the IC50 (p38a/PRAK) turn out when `Cc1cnnc(COc2cc(C)n(-c3cc(-c4ccnc(C(C)(C)O)n4)ncc3C)c(=O)c2Cl)c1` (single isomer, unassigned) [Example 28B, rel-3-chloro-2′-[2-(2-hydroxypropan-2-yl)pyrimidin-4-yl]-5′,6-dimethyl-4-[(5-methylpyridazin-3-yl)methoxy]-[1,4′-bipyridin]-2-one] was run?
**A.** > 316 µM

**Q.** For `Cc1cnc(-n2nc(C(C)(C)O)cc2C)cc1-n1c(C)cc(OCc2ncc(F)cc2F)c(Cl)c1=O` (single isomer, unassigned) [Example 19B, rel-3-chloro-4-((3,5-difluoropyridin-2-yl)methoxy)-2′-(3-(2-hydroxypropan-2-yl)-5-methyl-1H-pyrazol-1-yl)-5′,6-dimethyl-2H-[1,4′-bipyridin]-2-one], which IC50 (p38a/PRAK) is on record?
**A.** > 316 µM

**Q.** For `Cc1nn(-c2ccnc(C(C)(C)O)n2)cc1-n1c(C)cc(OCc2ncc(F)cc2F)c(Cl)c1=O` [Example 30, 3-chloro-4-[(3,5-difluoropyridin-2-yl)methoxy]-1-{1-[2-(2-hydroxypropan-2-yl)pyrimidin-4-yl]-3-methylpyrazol-4-yl}-6-methylpyridin-2-one], which IC50 (p38a/PRAK) is on record?
**A.** 25.1 µM

**Q.** How did the IC50 (p38a/PRAK) turn out when `Cc1cnc(-n2nc(C(C)(C)O)cc2C2CC2)cc1-n1c(C)cc(OCc2ncc(F)cc2F)c(Cl)c1=O` (single isomer, unassigned) [Example 20B, rel-3-chloro-2′-[5-cyclopropyl-3-(2-hydroxypropan-2-yl)pyrazol-1-yl]-4-[(3,5-difluoropyridin-2-yl)methoxy]-5′,6-dimethyl-[1,4′-bipyridin]-2-one] was run?
**A.** > 316 µM
